Test results reported in US9534300B2, “Water soluble substituted imidazolines as corrosion inhibitors for ferrous metals” (Ecolab USA, Inc., priority 2014, dated 2017).

Assay: Solubility in water of synthesized substituted imidazolines
Format: physicochemical

| Solubility in water | SMILES |
| --- | --- |
| Yes Yes Yes | CCCCCCCCCCCC1=NCCN1CCNCCC(=O)O [No. 7, 3-((2-(2-undecyl-4,5-dihydro-1H-imidazol-1-yl)ethyl)amino)propanoic acid] |
| Yes Yes Yes | CCCCCCCC1=NCCN1CCNCCC(=O)O [No. 6, 3-((2-(2-heptyl-4,5-dihydro-1H-imidazol-1-yl)ethyl)amino)propanoic acid] |
| Yes Yes Yes | CCCCCC1=NCCN1CCNCCC(=O)O [No. 5, 3-((2-(2-pentyl-4,5-dihydro-1H-imidazol-1-yl)ethyl)amino)propanoic acid] |
